Results from publication PMC12224939, “Trypstatin as a Novel TMPRSS2 Inhibitor with Broad‐Spectrum Efficacy against Corona and Influenza Viruses” (Advanced Science, 2025).
Where a name gives a salt, the structure may show the parent alone. Read-outs that look alike come from different tables or passages of the source. Bridge positions count the residues as written; N and C are the ends. Ends that are not written are not given here.

Assays:
[1] = test system: Influenza A/Virginia/ATCC3/2009 (Virg09; A/H1N1); assay: Influenza virus inhibition assay in Calu-3 cells, IAV H1N1; format: cell-based, influenza A virus
[2] = test system: Influenza B/Ned/537/05 (Ned05; B/Yamagata lineage); assay: Influenza virus inhibition assay in Calu-3 cells, IBV; format: cell-based, influenza B virus
SARS-CoV-2 Omicron BA.1 = assay: microbe, parasite or virus in culture; format: cell-based
TMPRSS13 = target: T1, TMPRSS13 (Homo sapiens, UniProt Q9BYE2); assay: Cellular TMPRSS13 activity assay in transfected HEK293T cells; format: cell-based
T1 construct: encoding the respective transmembrane serine protease per well; host or cells: HEK293T
Procedure: (§1) Twenty thousand HEK293T cells were seeded in a 96‐well flat bottom plate. The next day, cells were transfected with 100 ng of an expression plasmid (Backbone: Twist Bioscience, EF1alpha mammalian expression vector) encoding the respective transmembrane serine protease per well using LT1 transfection reagent (TMPRSS2 human NCBI RefSeq: NP_005647.3; TMPRSS2 Syrian gold hamster NCBI RefSeq: XP_012971683.1; TMPRSS11D NCBI RefSeq: NP_004253.1; TMPRSS13 NCBI RefSeq: NP_001070731.1). In short, plasmid DNA was mixed in a 1:3 ratio with LT1 in a serum‐free medium and incubated for 20 min before the mixture was applied dropwise onto the cells. Sixteen hours post‐transfection, the medium was replaced by a serum‐free medium, and cells were treated with serial dilution of compounds in PBS. After 15 min of incubation at 37 °C, 100 µM of respective protease‐specific substrate (TMPRSS2: Boc‐QAR‐AMC, Bachem # 4017019; TMPRSS11D: Boc‐FSR‐AMC, Bachem # 4012340; TMPRSS13: Pyr‐RTKR‐AMC, Bachem #4018149) was added and incubated for 2 h at 37 °C. Fluorescence intensity was recorded at an excitation wavelength of 380 nm and emission wavelength of 460 nm in a Synergy H1 microplate reader (BioTek) with Gen 5 3.04 software. Values were background corrected for non‐transfected HEK293T‐cells.

[3] = test system: Influenza A/Victoria/361/11 (Vict11; A/H3N2); assay: Influenza virus inhibition assay in Calu-3 cells, IAV H3N2; format: cell-based, influenza A virus
[4] = cited from earlier work
TMPRSS11D = target: T2, TMPRSS11D (Homo sapiens, UniProt O60235); assay: Cellular TMPRSS11D activity assay in transfected HEK293T cells; format: cell-based
T2 construct: encoding the respective transmembrane serine protease per well; host or cells: HEK293T
Procedure: as §1

TMPRSS14 (Matriptase) = target: T3, TMPRSS14 (Matriptase) (Homo sapiens, UniProt Q9Y5Y6); assay: Recombinant TMPRSS14 activity assay; format: biochemical; conditions: recombinant enzyme
T3 construct: purchased 3946
Procedure: In the next step, 50 µL of 20 µM BOC‐Gln‐Ala‐Arg‐AMC protease substrate (Bachem #4017019) in the case of TMPRSS2 and TMPRSS14 or 50 µL of 150 µM BOC‐Gln‐Arg‐Arg‐AMC (PeptaNova) in the case of TMPRSS1 was added and incubated for 2 h for TMPRSS2, or 5 mins in the case of TMPRSS1/14 at 37 °C. Fluorescence intensity was measured after 2 h at an excitation wavelength of 380 nm and emission wavelength of 460 nm in a SynergyTM H1 microplate reader (BioTek) with Gen5 3.04 software. […] Assays were performed in a total volume of 100 µL in quadruplicate wells of a 96 Nunc well plate (Thermo Scientific #10174221) with a final TMPRSS2 concentration of 20 nM. Initial velocities were measured in 50 s intervals for 15 min with excitation of 360 nm and emission of 460 nm in a SynergyTM H1 microplate reader. K m and V max were calculated from Michaelis–Menten plots using GraphPadPrism. The inhibitory constant K i was calculated from the IC50 values according to the Cheng–Prusoff equation (K i = IC50/(1 + [S]/K m)) for competitive reversible inhibitors.^[ [91] ^]

Kallikrein 5 = target: T4, Kallikrein 5 (Homo sapiens, UniProt Q9Y337); assay: Recombinant kallikrein 5 activity assay; format: biochemical; conditions: recombinant enzyme
T4 construct: purchased R&D 1108
Procedure: Kallikrein 5 activity was measured by mixing 25 µL of compound with 25 µL of 2 µg mL^−1 of recombinant enzyme (R&D #1108) in assay buffer (100 mM NaH2PO4, pH 8) for 15 min at 37 °C before the addition of 50 µL of BOC‐Val‐Pro‐Arg‐AMC substrate (R&D #ES011). The mixture was incubated for 5 min at 37 °C before fluorescence intensity was measured at an excitation wavelength of 380 nm and emission wavelength of 460 nm in a SynergyTM H1 microplate reader (BioTek) with Gen5 3.04 software.

hCoV-NL63 = assay: HCoV-NL63 inhibition assay in Caco-2 cells; format: cell-based
Procedure: Caco‐2 cells (25 000) were seeded in a 96‐well flat‐bottom plate before the following day, cells were treated for 30 min with serial dilutions of compounds in PBS and the cells were infected with a MOI of 0.018 and incubated at 33 °C. At 72 hpi, cells were detached and fixed in a final concentration of 4% PFA for 30 min. Subsequently, cells were washed with PBS and stained for flow cytometry analysis with anti‐NL63‐nucleocapsid antibody (SinoBiological #40641‐T62) diluted 1:5000 in Buffer B (Fix and Perm, MuBio Nordic) for 40 min at 4 °C. Cells were washed twice with FACS buffer (1% FCS in PBS) and incubated with Alexa Flour 647 labeled anti‐rabbit antibody (Cell Signaling #4414) diluted 1:5000 in FACS buffer for 30 min at 4 °C before the cells were washed again twice with FACS buffer. Analysis was performed using a CytoflexLX flow cytometer (Beckmann Coulter) with CytExpert 2.3 software.

[5] = test system: lentiviral pseudoparticles harboring VSV-G glycoprotein; format: cell-based
[6] = Table S1, read-out: anti-viral IC50 (±SEM), IAV H1N1
[7] = Table S1, read-out: anti-viral IC50 (±SEM), IBV
[8] = Human coronavirus NL63, Caco-2, Table S1, read-out: anti-viral IC50 (±SEM), hCoV-NL63

T3 sequence (Q9Y5Y6 whole entry): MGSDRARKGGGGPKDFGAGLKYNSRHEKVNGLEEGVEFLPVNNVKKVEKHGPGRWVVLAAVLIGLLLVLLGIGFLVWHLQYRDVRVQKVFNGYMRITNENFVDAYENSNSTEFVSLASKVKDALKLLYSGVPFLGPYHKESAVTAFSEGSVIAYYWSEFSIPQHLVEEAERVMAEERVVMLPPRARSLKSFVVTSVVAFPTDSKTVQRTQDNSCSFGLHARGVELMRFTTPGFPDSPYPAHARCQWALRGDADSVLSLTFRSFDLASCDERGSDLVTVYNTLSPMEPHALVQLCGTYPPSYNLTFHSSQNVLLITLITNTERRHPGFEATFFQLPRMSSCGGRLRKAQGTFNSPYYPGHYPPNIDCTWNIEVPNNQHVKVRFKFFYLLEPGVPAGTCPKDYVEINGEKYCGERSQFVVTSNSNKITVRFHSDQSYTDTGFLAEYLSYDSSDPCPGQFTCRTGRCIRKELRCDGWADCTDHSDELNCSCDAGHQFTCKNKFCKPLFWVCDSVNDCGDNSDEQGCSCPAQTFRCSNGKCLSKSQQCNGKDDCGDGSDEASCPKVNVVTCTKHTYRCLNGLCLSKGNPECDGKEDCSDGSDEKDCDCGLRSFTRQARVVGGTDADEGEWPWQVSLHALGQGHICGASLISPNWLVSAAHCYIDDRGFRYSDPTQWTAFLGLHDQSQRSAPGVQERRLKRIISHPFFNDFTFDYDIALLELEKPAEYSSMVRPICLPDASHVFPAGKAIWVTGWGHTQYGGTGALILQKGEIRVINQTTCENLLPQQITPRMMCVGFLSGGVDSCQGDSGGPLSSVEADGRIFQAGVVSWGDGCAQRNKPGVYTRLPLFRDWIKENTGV
T4 sequence (Q9Y337 23-293): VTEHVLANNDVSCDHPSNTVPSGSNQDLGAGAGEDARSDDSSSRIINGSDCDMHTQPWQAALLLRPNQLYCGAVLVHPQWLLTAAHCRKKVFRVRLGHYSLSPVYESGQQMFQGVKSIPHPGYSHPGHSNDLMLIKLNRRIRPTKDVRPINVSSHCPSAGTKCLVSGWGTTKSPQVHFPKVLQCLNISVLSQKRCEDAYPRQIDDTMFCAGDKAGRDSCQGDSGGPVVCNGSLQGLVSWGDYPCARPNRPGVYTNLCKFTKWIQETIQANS
T1 sequence (Q9BYE2 other isoform, or with tags, fused parts or gaps): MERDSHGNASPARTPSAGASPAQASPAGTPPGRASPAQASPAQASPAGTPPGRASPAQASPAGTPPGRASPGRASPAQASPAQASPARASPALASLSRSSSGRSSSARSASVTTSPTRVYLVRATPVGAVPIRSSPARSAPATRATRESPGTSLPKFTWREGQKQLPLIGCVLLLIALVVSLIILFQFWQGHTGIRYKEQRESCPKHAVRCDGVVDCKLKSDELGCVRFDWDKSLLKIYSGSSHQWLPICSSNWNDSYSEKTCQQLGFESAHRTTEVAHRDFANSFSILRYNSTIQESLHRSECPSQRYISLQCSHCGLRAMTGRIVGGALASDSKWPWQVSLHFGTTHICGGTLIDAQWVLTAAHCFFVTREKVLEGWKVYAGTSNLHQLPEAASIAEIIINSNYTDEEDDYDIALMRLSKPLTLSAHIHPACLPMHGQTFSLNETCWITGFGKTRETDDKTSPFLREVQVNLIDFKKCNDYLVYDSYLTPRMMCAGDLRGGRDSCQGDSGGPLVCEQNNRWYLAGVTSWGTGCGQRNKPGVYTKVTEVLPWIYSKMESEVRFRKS
T2 sequence (O60235 whole entry): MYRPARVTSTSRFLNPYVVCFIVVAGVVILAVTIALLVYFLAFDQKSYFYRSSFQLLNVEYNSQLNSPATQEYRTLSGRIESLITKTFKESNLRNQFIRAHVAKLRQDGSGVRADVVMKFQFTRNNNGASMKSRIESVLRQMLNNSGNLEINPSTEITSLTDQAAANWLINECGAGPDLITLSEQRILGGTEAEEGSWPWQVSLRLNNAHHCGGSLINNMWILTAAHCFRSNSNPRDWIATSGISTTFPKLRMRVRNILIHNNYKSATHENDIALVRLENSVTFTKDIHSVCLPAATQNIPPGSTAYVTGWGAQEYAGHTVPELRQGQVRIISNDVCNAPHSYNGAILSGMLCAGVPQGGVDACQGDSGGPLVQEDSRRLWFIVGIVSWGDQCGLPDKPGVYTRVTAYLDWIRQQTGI

`O=C1c2c(O)c(=O)ccn2N([C@@H]2c3ccccc3SCc3c2ccc(F)c3F)[C@@H]2COCCN12` [Baloxavir acid] gave an IC50 [1, 6] of 1.6 ± 1 nM and an IC50 [2, 7] of 10.3 ± 2 nM.

With `CN(C)C(=O)COC(=O)Cc1ccc(OC(=O)c2ccc(NC(=N)N)cc2)cc1` [Camostat mesylate] the IC50 (SARS-CoV-2 Omicron BA.1; Severe acute respiratory syndrome coronavirus 2, Caco-2, 24 h, read-out: IC50, SARS-CoV-2 Omicron BA.1) was 68 nM, the IC50 (SARS-CoV-2 Omicron BA.1; Severe acute respiratory syndrome coronavirus 2, Caco-2, read-out: anti-viral IC50 (±SEM), SARS-CoV-2 BA.1) was 68.1 ± 5 nM and the IC50 ([1]; Influenza A virus, Calu-3, 72 h, read-out: IC50, IAV H1N1 (Virg09)) was 220 nM. It also gave an IC50 ([1]; Influenza A virus, Calu-3, Table S1, read-out: anti-viral IC50 (±SEM), IAV H1N1) of 220 ± 49 nM, an IC50 ([2]; Influenza B virus, Calu-3, 72 h, read-out: IC50, IBV (Ned05)) of 125 nM and an IC50 ([2]; Influenza B virus, Calu-3, Table S1, read-out: anti-viral IC50 (±SEM), IBV) of 125 ± 33 nM. The IC50 (TMPRSS13) was 93 nM, the IC50 ([3]; Influenza A virus, H3N2, Calu-3, 72 h, read-out: IC50, IAV H3N2 (Vict11)) was 50 nM and the IC50 ([3]; Influenza A virus, H3N2, Calu-3, Table S1, read-out: anti-viral IC50 (±SEM), IAV H3N2) was 50.2 ± 16 nM. The plasma half-life [4] was under 2 h, the IC50 (TMPRSS11D) was 194 nM and the IC50 (TMPRSS14 (Matriptase)) was 23 nM. It also gave an IC50 (Kallikrein 5) of 536 nM, an IC50 (hCoV-NL63; Human coronavirus NL63, Caco-2, 72 h, read-out: IC50, hCoV-NL63 replication) of 110 nM and an IC50 (hCoV-NL63; [8]) of 110 ± 24 nM.

In the case of `N=C(N)c1ccc2cc(OC(=O)c3ccc(N=C(N)N)cc3)ccc2c1` [Nafamostat mesylate], the half-life [4] is listed as 8 min.

`CC(C)(C)[C@H](NC(=O)C(F)(F)F)C(=O)N1C[C@H]2[C@@H]([C@H]1C(=O)N[C@H](C#N)C[C@@H]1CCNC1=O)C2(C)C` [Nirmatrelvir] showed an IC50 (hCoV-NL63; [8]) of 1260 ± 64 nM.

In the case of Aprotinin, the IC50 [1, 6] is reported as 2250 ± 886 nM, the IC50 [2, 7] is reported as 2790 ± 871 nM and the IC50 ([3]; Table S1, read-out: anti-viral IC50 (±SEM), IAV H3N2) is reported as 1460 ± 693 nM.

For “CNLPIVRGPCRAFIQLWAFDAVKGKCVLFPYGGCQGNGNKFYSEKECREYC (disulfide 1-51, 10-34, 26-47) [Bikunin KD 2]”, the “effect on VSV-G-mediated pseudoparticle entry” value [5] was “without affecting VSV‐G‐driven entry”.

B1: Bikunin (protein, UniProt P02760 206-352, looked up)
Inter-alpha-trypsin inhibitor …: AVLPQEEEGSGGGQLVTEVTKKEDSCQLGYSAGPCMGMTSRYFYNGTSMACETFQYGGCMGNGNNFVTEKECLQTCRTVAACNLPIVRGPCRAFIQLWAFDAVKGKCVLFPYGGCQGNGNKFYSEKECREYCGVPGDGDEELLRFSN
modifications: Inter-alpha-trypsin inhibitor light chain
With B1 the “effect on VSV-G-mediated pseudoparticle entry” value [5] was “non‐specific effects against VSV‐G‐mediated entry”.
